Earlier results as cited in patent publication US7427493B2, “Recombinant genes for polyketide modifying enzymes” (Kosan Biosciences Incorporated, priority 2002, dated 2008).

Tested on: parasites
Details: background statement

CC[C@H]1OC(=O)[C@H](C)[C@@H](O[C@H]2C[C@@](C)(OC)[C@@H](O)[C@H](C)O2)[C@H](C)[C@@H](O[C@@H]2O[C@H](C)C[C@H](N(C)C)[C@H]2O)[C@](C)(O)C[C@@H](C)C(=O)[C@H](C)[C@@H](O)[C@]1(C)O [erythromycin]
antiparasitic activity: does not have antiparasitic activity
